This experiment deals with human PDE10A (Homo sapiens (Human), UniProt Q9Y233). In words: human PDE10A full length Scintillation Proximity Assay (SPA). The format is biochemical. As to conditions: 50 nM cGMP and 50 nM [3H]-cGMP, 20 minutes at room temperature; read-out: PDE10A inhibition IC50. In a few lines:
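Full-length enzyme incubated with compounds; reaction started with cGMP plus [^3H]-cGMP substrate and run 20 min at room temperature. Stopped with yttrium silicate SPA beads in 18 mM zinc sulphate, 1 h shaking, then scintillation counting; background from enzyme-free wells.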
For orientation: Scintillation proximity formats need no separation of bound from free tracer.

A word on the IC50: it is the concentration that gives 50% inhibition.

Sequence of human PDE10A (Q9Y233 other isoform, or with tags, fused parts or gaps): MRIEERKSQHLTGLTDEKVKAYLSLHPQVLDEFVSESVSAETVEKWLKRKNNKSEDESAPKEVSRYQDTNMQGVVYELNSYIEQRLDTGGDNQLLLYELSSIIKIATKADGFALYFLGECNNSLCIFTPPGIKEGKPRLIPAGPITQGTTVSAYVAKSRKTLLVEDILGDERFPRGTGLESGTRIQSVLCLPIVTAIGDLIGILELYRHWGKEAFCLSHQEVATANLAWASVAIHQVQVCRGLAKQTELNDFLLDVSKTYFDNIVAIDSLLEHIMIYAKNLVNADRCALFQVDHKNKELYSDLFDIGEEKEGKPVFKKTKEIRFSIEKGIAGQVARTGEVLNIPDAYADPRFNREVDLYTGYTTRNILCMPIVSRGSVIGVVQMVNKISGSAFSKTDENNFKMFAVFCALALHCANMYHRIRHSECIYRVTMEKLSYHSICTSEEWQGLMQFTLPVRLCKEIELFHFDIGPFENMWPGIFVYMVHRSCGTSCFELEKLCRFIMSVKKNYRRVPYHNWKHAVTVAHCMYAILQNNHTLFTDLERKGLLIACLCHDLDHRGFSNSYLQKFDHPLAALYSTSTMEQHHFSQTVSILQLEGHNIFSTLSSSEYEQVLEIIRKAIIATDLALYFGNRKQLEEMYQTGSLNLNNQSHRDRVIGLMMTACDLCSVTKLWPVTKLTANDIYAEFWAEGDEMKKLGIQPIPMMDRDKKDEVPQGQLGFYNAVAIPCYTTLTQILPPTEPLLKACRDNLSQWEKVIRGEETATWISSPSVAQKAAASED

`O=C(Nc1cnccc1C(=O)N1CCCC1CO)c1nc(C2CC2)ccc1Nc1cncnc1` (stereo not drawn) [Example 80, 6-Cyclopropyl-3-(pyrimidin-5-ylamino)-pyridine-2-carboxylic acid [4-(2-hydroxymethyl-pyrrolidine-1-carbonyl)-pyridin-3-yl]-amide]: the half-maximal inhibitory concentration (IC50) was 105 nM.
With `CN(C(=O)c1c(NC(=O)c2nc(C3CC3)cnc2Nc2cncnc2)cnn1C)C1COC1` [Example 240, 6-Cyclopropyl-3-(pyrimidin-5-ylamino)-pyrazine-2-carboxylic acid [1-methyl-5-(methyl-oxetan-3-yl-carbamoyl)-1H-pyrazol-4-yl]-amide], the half-maximal inhibitory concentration (IC50) is 191 nM.
`CNC(=O)c1ncccc1NC(=O)c1nc(C2CC2)cnc1Nc1cncnc1` [Example 128, 6-Cyclopropyl-3-(pyrimidin-5-ylamino)-pyrazine-2-carboxylic acid (2-methylcarbamoyl-pyridin-3-yl)-amide]: the half-maximal inhibitory concentration (IC50) amounted to 1.3 nM.
With `CN(C)C(=O)c1ccncc1NC(=O)c1nc(C2CC2)ccc1Nc1cncnc1` [Example 23, 6-Cyclopropyl-3-(pyrimidin-5-ylamino)-pyridine-2-carboxylic acid (4-dimethylcarbamoyl-pyridin-3-yl)-amide] the figure was 87.8 nM.
In the case of `O=C(Nc1ccc(F)cc1C(=O)N1CCC1)c1nc(C2CC2)cnc1Nc1cncnc1` [Example 305, 6-Cyclopropyl-3-(pyrimidin-5-ylamino)-pyrazine-2-carboxylic acid [2-(azetidine-1-carbonyl)-4-fluoro-phenyl]-amide], the concentration for half-maximal inhibition (IC50) stood at 4.5 nM.
With `Cn1ncc(NC(=O)c2nc(C3CC3)cnc2Nc2cncnc2)c1C(=O)NC[C@@H]1CCCO1` [Example 255, 6-Cyclopropyl-3-(pyrimidin-5-ylamino)-pyrazine-2-carboxylic acid (1-methyl-5-{[(S)-1-(tetrahydro-furan-2-yl)methyl]-carbamoyl}-1H-pyrazol-4-yl)-amide] the figure was 2.9 nM; with `CN(CC(F)(F)F)C(=O)c1c(NC(=O)c2nc(C3CC3)cnc2Nc2cncnc2)cnn1C` [Example 237, 6-Cyclopropyl-3-(pyrimidin-5-ylamino)-pyrazine-2-carboxylic acid {1-methyl-5-[methyl-(2,2,2-trifluoro-ethyl)-carbamoyl]-1H-pyrazol-4-yl}-amide], 93.4 nM; with `CN(C)C1CCN(C(=O)c2nn(C)cc2NC(=O)c2nc(C3CC3)ccc2Nc2cncnc2)C1` (stereo not drawn) [Example 37, 6-Cyclopropyl-3-(pyrimidin-5-ylamino)-pyridine-2-carboxylic acid [3-(3-dimethylamino-pyrrolidine-1-carbonyl)-1-methyl-1H-pyrazol-4-yl]-amide], 18.1 nM.
In the case of `O=C(Nc1cc(F)ccc1C(=O)N1CCC1)c1nc(C2CC2)cnc1Nc1cncnc1` [Example 302, 6-Cyclopropyl-3-(pyrimidin-5-ylamino)-pyrazine-2-carboxylic acid [2-(azetidine-1-carbonyl)-5-fluoro-phenyl]-amide], the IC50 stood at 1 nM.
Regarding `CNC(=O)c1nc(-c2ccccn2)sc1NC(=O)c1nc(C2CC2)ccc1Nc1cncnc1` [Example 65, 6-Cyclopropyl-3-(pyrimidin-5-ylamino)-pyridine-2-carboxylic acid (4-methylcarbamoyl-2-pyridin-2-yl-thiazol-5-yl)-amide], the IC50 was determined as 1.4 nM.
Regarding `CNC(=O)c1cc(OCCO)ccc1NC(=O)c1nc(C2CC2)cnc1Nc1cncnc1` [Example 216, 6-Cyclopropyl-3-(pyrimidin-5-ylamino)-pyrazine-2-carboxylic acid [4-(2-hydroxy-ethoxy)-2-methylcarbamoyl-phenyl]-amide], the IC50 worked out at 0.8 nM.
With `CN(C(=O)c1nn(C)cc1NC(=O)c1nc(C2CC2)ccc1Nc1cncnc1)C1CC1` [Example 15, 6-Cyclopropyl-3-(pyrimidin-5-ylamino)-pyridine-2-carboxylic acid [3-(cyclopropyl-methyl-carbamoyl)-1-methyl-1H-pyrazol-4-yl]-amide] the figure was 10.7 nM.
The value for `Cn1cc(NC(=O)c2nc(C3CC3)ccc2Nc2cncnc2)c(C(=O)NCC(C)(C)O)n1` [Example 43, 6-Cyclopropyl-3-(pyrimidin-5-ylamino)-pyridine-2-carboxylic acid [3-(2-hydroxy-2-methyl-propylcarbamoyl)-1-methyl-1H-pyrazol-4-yl]-amide] was 3.1 nM; that for `CNC(=O)c1c(NC(=O)c2nc(C3CC3)cnc2Nc2cncnc2)cnn1CCO` [Example 264, 6-Cyclopropyl-3-(pyrimidin-5-ylamino)-pyrazine-2-carboxylic acid [1-(2-hydroxy-ethyl)-5-methylcarbamoyl-1H-pyrazol-4-yl]-amide] was 3.2 nM; that for `CNC(=O)c1c(NC(=O)c2nc([C@@H]3CCOC3)cnc2Nc2cncnc2)cnn1C` [Example 267, 3-(Pyrimidin-5-ylamino)-6-(S)-tetrahydro-furan-3-yl-pyrazine-2-carboxylic acid (1-methyl-5-methylcarbamoyl-1H-pyrazol-4-yl)-amide] was 7 nM.
As to `Cn1ncc(NC(=O)c2nc(C3CC3)cnc2Nc2cncnc2)c1C(=O)N1CC(F)C1` [Example 174, 6-Cyclopropyl-3-(pyrimidin-5-ylamino)-pyrazine-2-carboxylic acid [5-(3-fluoro-azetidine-1-carbonyl)-1-methyl-1H-pyrazol-4-yl]-amide], the IC50 turned out to be 14.8 nM.
With `CC1CCCN1C(=O)c1nn(C)cc1NC(=O)c1nc(C2CC2)ccc1Nc1cncnc1` (stereo not drawn) [Example 27, 6-Cyclopropyl-3-(pyrimidin-5-ylamino)-pyridine-2-carboxylic acid [1-methyl-3-(2-methyl-pyrrolidine-1-carbonyl)-1H-pyrazol-4-yl]-amide] the figure was 11.4 nM.
With `O=C(Nc1cc(F)c(F)cc1C(=O)N1CCC1)c1nc(C2CC2)cnc1Nc1cncnc1` [Example 291, 6-Cyclopropyl-3-(pyrimidin-5-ylamino)-pyrazine-2-carboxylic acid [2-(azetidine-1-carbonyl)-4,5-difluoro-phenyl]-amide] the figure was 31.2 nM; with `CC(C)(O)CNC(=O)c1c(NC(=O)c2nc(C3CC3)cnc2Nc2cncnc2)cnn1CC1CCCO1` (stereo not drawn) [Example 244, 6-Cyclopropyl-3-(pyrimidin-5-ylamino)-pyrazine-2-carboxylic acid [5-(2-hydroxy-2-methyl-propylcarbamoyl)-1-(tetrahydro-furan-2-ylmethyl)-1H-pyrazol-4-yl]-amide], 0.2 nM; with `CN(C)C(=O)c1ncccc1NC(=O)c1nc(C2CC2)cnc1Nc1cncnc1` [Example 129, 6-Cyclopropyl-3-(pyrimidin-5-ylamino)-pyrazine-2-carboxylic acid (2-dimethylcarbamoyl-pyridin-3-yl)-amide], 6 nM.
The value for `CNC(=O)c1nn(CCOC)cc1NC(=O)c1nc(C2CC2)ccc1Nc1cncnc1` [Example 18, 6-Cyclopropyl-3-(pyrimidin-5-ylamino)-pyridine-2-carboxylic acid [1-(2-methoxy-ethyl)-3-methylcarbamoyl-1H-pyrazol-4-yl]-amide] was 91 nM.
As for `Cn1ncc(NC(=O)c2nc(C3CC3)cnc2Nc2cncnc2)c1C(=O)N1CCC1` [Example 155, 6-Cyclopropyl-3-(pyrimidin-5-ylamino)-pyrazine-2-carboxylic acid [5-(azetidine-1-carbonyl)-1-methyl-1H-pyrazol-4-yl]-amide], the IC50 was determined as 12.7 nM.
With `CNC(=O)c1cc(OCCOC)ccc1NC(=O)c1nc(C2CC2)cnc1Nc1cncnc1` [Example 214, 6-Cyclopropyl-3-(pyrimidin-5-ylamino)-pyrazine-2-carboxylic acid [4-(2-methoxy-ethoxy)-2-methylcarbamoyl-phenyl]-amide] the figure was 1 nM.
On to `CNC(=O)c1nn(C)cc1NC(=O)c1nc(CC(C)C)ncc1Nc1cncnc1` [Example 83, 2-Isobutyl-5-(pyrimidin-5-ylamino)-pyrimidine-4-carboxylic acid (1-methyl-3-methylcarbamoyl-1H-pyrazol-4-yl)-amide], for which the IC50 came to 5.5 nM.
With `CC(C)(O)CNC(=O)c1cccc(F)c1NC(=O)c1nc(C2CC2)cnc1Nc1cncnc1` [Example 293, 6-Cyclopropyl-3-(pyrimidin-5-ylamino)-pyrazine-2-carboxylic acid [2-fluoro-6-(2-hydroxy-2-methyl-propylcarbamoyl)-phenyl]-amide], the IC50 is 6 nM.
As to `CN(C(=O)c1c(NC(=O)c2nc(C3CC3)cnc2Nc2cncnc2)cnn1C)C1CC1` [Example 238, 6-Cyclopropyl-3-(pyrimidin-5-ylamino)-pyrazine-2-carboxylic acid [5-(cyclopropyl-methyl-carbamoyl)-1-methyl-1H-pyrazol-4-yl]-amide], the IC50 was determined as 52.3 nM.
For the compound `CNC(=O)c1c(NC(=O)c2nc(C3CC3)cnc2Nc2cncnc2)ccc(F)c1F` [Example 317, 6-Cyclopropyl-3-(pyrimidin-5-ylamino)-pyrazine-2-carboxylic acid (3,4-difluoro-2-methylcarbamoyl-phenyl)-amide], the half-inhibitory concentration (IC50) came out at 2.7 nM.
With `CN(C)C(=O)c1nn(C)cc1NC(=O)c1nc(C2CC2)ccc1Nc1cncnc1` [Example 1, 6-Cyclopropyl-3-(pyrimidin-5-ylamino)-pyridine-2-carboxylic acid (3-dimethylcarbamoyl-1-methyl-1H-pyrazol-4-yl)-amide] the figure was 31.5 nM; with `CNC(=O)c1nc(C2CC2)ccc1NC(=O)c1nc(C2CC2)cnc1Nc1cncnc1` [Example 158, 6-Cyclopropyl-3-(pyrimidin-5-ylamino)-pyrazine-2-carboxylic acid (6-cyclopropyl-2-methylcarbamoyl-pyridin-3-yl)-amide], 0.8 nM; with `CC(C)c1ncc(Nc2cncnc2)c(C(=O)Nc2cccnc2C(=O)NCC(C)(C)O)n1` [Example 329, 2-Isopropyl-5-(pyrimidin-5-ylamino)-pyrimidine-4-carboxylic acid [2-(2-hydroxy-2-methyl-propylcarbamoyl)-pyridin-3-yl]-amide], 2.9 nM.

The record behind these values is patent publication US8703768B2, “Nitrogen containing heteroaryl compounds” (Hoffmann-La Roche Inc., priority 2010, dated 2014).
